Values after ≈ are worked out from the molar mass of the structure shown.
Experiments:
physchem = format: physicochemical; details: for Solubility in iPrOH: 1440 min; for Solubility in H2O / solubility at 24 h: water; for Solubility in H2O: 24 h
[1] = Inhibitor activity (IA), depth of chemical embossing and degree of expansion ranked against BTA-P (Table II); design: key to Inhibitor Activity (IA): 1: Excellent; 2: Very Good; 3: Good; 4: Fair; 5: Poor; None; details: 10% by weight inhibitor in ink; scale 1 to 5, BTA-P benchmark = 1; 7 mil plastisol, 185 °C, 1.9 min
Procedure: Table II sets forth a number of properties of the examples and comparative examples which were made and tested. Most of these compounds were prepared using the direct milling procedure and then evaluated for inhibitor activity, ghosting and embossing definition.
The inhibited inks (at 10% by weight inhibitor concentration) were printed on 7 mils of an expandable plastisol coated onto a glass mat which was saturated with a non-expandable plastisol. This was done on a flat-bed gravure proof press using a 100 line screen step-wedge gravure plate. The steps ranged from a deep shadow tone to a shallow highlight tone. The inks printed and dried without any tack.
The printed samples were coated with 10 mils of a clear plastisol wearlayer and heated for 1.9±0.1 minutes at an air temperature of 185°±2° C. in a Werner. Mathis oven to fuse and expand the foamable plastisol to about 14 mils (a 2:1 blow ratio). The thickness of the printed coated areas (i.e., restricted area) was measured in mils and compared to the thickness of the expanded unprinted surrounding areas. This difference was recorded as depth of chemical embossing and was used along with the degree of expansion in the inhibited area to access the inhibitor activity (IA).
The inhibitor activity of the BTA-P derivative was established as the benchmark and on a scale of 1 to 5 was given a rating of 1 (five on the scale being less than one mil of overall chemical embossing). This is a subjective ranking where the other compounds were evaluated for inhibitor activity by comparing them to BTA-P, both numerically and visually.

[2] = Stability of dispersions and ink compositions containing the inhibitor; format: physicochemical
Procedure: A cationic dispersion of TTA-P was prepared using a quaternary ammonium salt, stearyl dimethylbenzylammonium chloride, (Maquat SC-18, Mason Chemical Co.), as the stabilizer. The product was first diminutized by grinding the coarse powder (TTA-P) for approximately 18 hours in a standard ball mill using a combination of 12 mm diameter spherical and 6 mm diameter×6 mm high cylindrical balls. Approximately 1/2 of the 1 L ball mill volume was filled for the grinding operation. […] The dispersion was then prepared by adding 2.35 parts Maquat SC-18 (85% active) to 37.65 parts deionized water and stirring until dissolved. A total of 40 parts of TTA-P was then added to the surfactant solution in 5 part increments with stirring, followed by agitation with a sonic dismembrator, (Fisher Model 3000). The sonic probe was inserted directly into the suspension and run on the highest setting for 1-2 minutes. A creamy dispersion resulted initially, with viscosity increasing with increasing solids content. The final suspension was a uniform paste with a concentration of 50% by weight solids.
A blue aqueous inhibitor ink was prepared by adding 0.20 parts of CIB 103 Blue Pigment (sold by Penn Color, Inc.) to 20 parts of CIE 94 Extender (sold by Penn Color, Inc.) and stirring to uniform coloration. Then 6.06 parts of the 50% suspension of TTA-P (prepared in Example 4) was then added to the ink mixture and stirred to uniform coloration.
An anionic dispersion paste of TTA-P was prepared with a polyoxyethylene branched nonylphenyl ether phosphate surfactant, (Rhodofac PE-50, Rhone Poulenc). Diminutization of the compound was performed by milling as described in Example 4. Dispersion of the compound was accomplished using the sonic dismembrator, also described in Example 4. Materials were combined in the proportion: 40 parts of deionized water, 2.06 parts of the surfactant and 40 parts of TTA-P. Materials were added in the listed sequence.
The anionic dispersion of TTA-P (Example 6) was added to an anionic ink formulation of Sicpa Corp. The resultant mixture consisted of 20 parts Sicpa Extender 694556, 0.20 parts Sicpa black ink 674554 and 6.06 parts of the 48.7% dispersion of the compound (Example 6).
A portion of BTA-P, the benzotriazole-piperazine derivative, was stably dispersed with the cationic surfactant stearyldimethylbenzylammonium chloride, (Maquat SC-18, Mason Chemical Co.). The compound was milled and dispersed as in Example 4. The materials were combined in the proportion: 20 parts deionized water, 1.18 parts Maquat SC-18, (85% active), and 33.16 parts BTA-P. The materials were added in the listed sequence. […] The paste was 61% by weight of BTA-P.
The cationic dispersion of BTA-P (Example 8) was added to a cationic ink formulation of Penn Color. The mixture consisted of 20 parts Penn Color Extender CIE 94, 0.20 parts Penn Color CIB 103 blue ink and 4.96 parts of the 61% dispersion of BTA-P (Example 8).
A portion of HTTA-P, the hydrogenated tolyltriazolepiperazine derivative, was colloidally dispersed with the cationic surfactant stearyldimethylbenzylammonium chloride, (Maquat SC-18, Mason Chemical Co.). The milling and dispersing procedures of Example 4 were followed. The materials were combined in the proportion: 21 parts deionized water, 1 part Maquat SC-18, (85% active), and 37 parts HTTA-P. The materials were added in the listed sequence. […] The paste was 62.7% by weight of HTTA-P.
The cationic dispersion of HTTA-P (Example 10) was added to a cationic ink formulation of Penn Color. The mixture consisted of 20 parts Extender CIE 94, 0.20 parts CIB 103 blue ink and 4.83 parts of the 62.7% dispersion of HTTA-P (Example 10).
Hitherto, dispersion of these new inhibitors directly into the ink formulation was not considered. The instability problems of other triazole inhibitors seemed to indicate that a surfactant in addition to that found in the ink and extender was required. […]

[3] = as above; format: physicochemical; details: for Stability of ink mixture: sonicated
[4] = cationic aqueous ink with cationic dispersion
[5] = cationic dispersion paste, Maquat SC-18

Compound	Solubility in iPrOH (physchem)	Solubility in H2O (physchem)	Inhibitor Activity (IA) [1]	Stability of ink mixture ([2]; anionic aqueous ink with anionic dispersion)	Stability of dispersion ([2]; anionic dispersion paste, Rhodofac PE-50)	Stability of ink mixture [2, 4]	Stability of ink mixture ([3]; direct addition to anionic ink)	Stability of ink mixture ([3]; direct addition to cationic ink)	solubility at 24 h (physchem)	Stability of dispersion [2, 5]	Stability of dispersion ([3]; direct milling in cationic ink extender CIE 94, about 18 hours)
N,N'-bis(tolyltriazol-1-yl methyl) piperazine [TTA-P]	0.204 % BY WT	0.031 % BY WT	1	colloidally stable	stable, homogenous paste	colloidally stable and disperse	homogenous and stable mixture	homogenous and stable mixture			
O=C(O)c1ccc(S(=O)(=O)NCn2nnc3ccccc32)cc1 [BTA-4CBSA, N-(Benzotriazol-1-yl Methyl)-4'-Carboxybenzene Sulfonamide]	0.137 % BY WT		1						110 µg/mL (≈ 331 µM)		
O=S(=O)(NCn1nnc2ccccc21)c1cccc2c(S(=O)(=O)NCn3nnc4ccccc43)cccc12 [BTA-NDSA, 1(1',5'-naphthalenedisulfonamido) methyl benzotriazole]	0.051 % BY WT		1						510 µg/mL (≈ 930 µM)		
O=S(=O)(NCn1nnc2ccccc21)c1cccc(S(=O)(=O)NCn2nnc3ccccc32)c1 [BTA-BDSA, 1(1',3'-benzenedisulfonamido)methyl benzotriazole]	0.120 % BY WT		1						890 µg/mL (≈ 1790 µM)		
N,N'-Bis(Methylcyclohexyltriazol-1-yl Methyl) Piperazine [HTTA-P]			1			colloidally stable				stable homogenous paste	
O=C(NCn1nnc2ccccc21)NCn1nnc2ccccc21 [BTA-U, 1,3-bis(benzotriazol-1'-ylmethyl) urea]	0.08 % BY WT		1						20 µg/mL (≈ 62 µM)		
Tolyltriazole [TTA, reference compound]	52.9 % BY WT	0.55 % BY WT	2								
c1ccc2c(c1)nnn2CNCn1nnc2ccccc21 [BTA-A, bis(benzotriazol-1-ylmethyl) amine]	0.028 % BY WT		1						390 µg/mL (≈ 1400 µM)		
c1ccc2c(c1)nnn2CN1CCN(Cn2nnc3ccccc32)CC1 [BTA-P, N,N'-bis(benzotriazol-1-ylmethyl) piperazine]	0.007 % BY WT		1			colloidally stable			10 µg/mL (≈ 28.7 µM)	stable homogenous paste	homogeneous stable dispersion
